Assay results reported in ChEMBL document CHEMBL4000217, “Structure-activity relationship of daptomycin analogues with substitution at (2S, 3R) 3-methyl glutamic acid position” (2017).
Values after ≈ are worked out from the molar mass of the structure shown.

system: Staphylococcus aureus; experiment: Antibacterial activity against Staphylococcus aureus isolate 42 […] by CLSI method; type: functional

Row | SMILES | MIC
1 | CCCCCCCCCC(=O)N[C@@H](Cc1c[nH]c2ccccc12)C(=O)N[C@H](CC(N)=O)C(=O)N[C@@H](CC(=O)O)C(=O)N[C@@H]1C(=O)NCC(=O)N[C@@H](CCCN)C(=O)N[C@@H](CC(=O)O)C(=O)N[C@H](C)C(=O)N[C@@H](CC(=O)O)C(=O)NCC(=O)N[C@H](CO)C(=O)N[C@@H]([C@H](C)CC(=O)O)C(=O)N[C@@H](CC(=O)c2ccccc2N)C(=O)O[C@@H]1C | 0.5 µg/mL (≈ 0.309 µM)
2 | CCCCCCCCCC(=O)N[C@@H](Cc1c[nH]c2ccccc12)C(=O)N[C@@H](CC(N)=O)C(=O)N[C@@H](CC(=O)O)C(=O)N[C@@H]1C(=O)NCC(=O)N[C@@H](CCCN)C(=O)N[C@@H](CC(=O)O)C(=O)N[C@H](C)C(=O)N[C@@H](CC(=O)O)C(=O)NCC(=O)N[C@H](CO)C(=O)N[C@@H](C(C)CC(=O)O)C(=O)N[C@@H](CC(=O)c2ccccc2N)C(=O)O[C@@H]1C (single isomer, unassigned) [DAPTOMYCIN] | 128 µg/mL (≈ 79 µM)
3 | CCCCCCCCCC(=O)N[C@@H](Cc1c[nH]c2ccccc12)C(=O)N[C@@H](CC(N)=O)C(=O)N[C@@H](CC(=O)O)C(=O)N[C@@H]1C(=O)NCC(=O)N[C@@H](CCCN)C(=O)N[C@@H](CC(=O)O)C(=O)N[C@H](C)C(=O)N[C@@H](CC(=O)O)C(=O)NCC(=O)N[C@H](CO)C(=O)N[C@@H]([C@H](CC)CC(=O)O)C(=O)N[C@@H](CC(=O)c2ccccc2N)C(=O)O[C@@H]1C | 8 µg/mL (≈ 4.89 µM)
4 | CCCCCCCCCC(=O)N[C@@H](Cc1c[nH]c2ccccc12)C(=O)N[C@@H](CC(N)=O)C(=O)N[C@@H](CC(=O)O)C(=O)N[C@@H]1C(=O)NCC(=O)N[C@@H](CCCN)C(=O)N[C@@H](CC(=O)O)C(=O)N[C@H](C)C(=O)N[C@@H](CC(=O)O)C(=O)NCC(=O)N[C@H](CO)C(=O)N[C@@H](C(C)(C)CC(=O)O)C(=O)N[C@@H](CC(=O)c2ccccc2N)C(=O)O[C@@H]1C | 64 µg/mL (≈ 39.2 µM)
5 | CCCCCCCCCC(=O)N[C@@H](Cc1c[nH]c2ccccc12)C(=O)N[C@@H](CC(N)=O)C(=O)N[C@@H](CC(=O)O)C(=O)N[C@@H]1C(=O)NCC(=O)N[C@@H](CCCN)C(=O)N[C@@H](CC(=O)O)C(=O)N[C@H](C)C(=O)N[C@@H](CC(=O)O)C(=O)NCC(=O)N[C@H](CO)C(=O)N[C@@H]([C@H](C)CC(N)=O)C(=O)N[C@@H](CC(=O)c2ccccc2N)C(=O)O[C@@H]1C | 32 µg/mL (≈ 19.8 µM)
